Assays:
[1] = biological target: T1, type-1 cholecystokinin (CCK1) receptor (Homo sapiens, UniProt P32238); settings: cited from earlier work
T1 sequence (P32238 1-428): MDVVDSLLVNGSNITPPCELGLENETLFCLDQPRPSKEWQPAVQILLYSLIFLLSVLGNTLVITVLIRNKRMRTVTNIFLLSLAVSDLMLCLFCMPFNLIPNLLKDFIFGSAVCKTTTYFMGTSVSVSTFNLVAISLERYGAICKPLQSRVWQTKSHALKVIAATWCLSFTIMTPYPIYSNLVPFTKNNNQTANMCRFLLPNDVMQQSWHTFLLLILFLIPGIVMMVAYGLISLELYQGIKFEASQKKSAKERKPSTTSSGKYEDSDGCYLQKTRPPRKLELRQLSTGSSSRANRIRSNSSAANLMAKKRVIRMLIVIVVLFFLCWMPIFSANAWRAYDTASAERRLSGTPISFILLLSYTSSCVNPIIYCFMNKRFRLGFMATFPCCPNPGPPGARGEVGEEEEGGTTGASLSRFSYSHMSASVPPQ

[2] = Compressibility of the powder (Carr index, USP 24/NF19); format: physicochemical; settings: 100 g powder, 250 ml graduated cylinder, 2000 strokes; percentage values 5-15 excellent, >33 very poor
Protocol: a) measurement of the compressibility of the powder which is expressed by the following formula (Carr index; (according to USP 24/NF19, p. 1914): [formula] where Vo and Vf are respectively the volumes occupied by a predetermined weighed quantity of powder (generally 100 g) placed in a 250 ml graduated cylinder and measured before and after a certain number of mechanical strokes (generally 2000 strokes); the smaller this index is the better will be the behaviour of the powder upon compression; for example, percentage values between 5-15 are considered excellent, whereas values greater than 33 are considered very poor (see J. I. Wells—Pharmaceutical Preformulation; Ellis H. Lim; J. Wiley and Sons Ed. p.

[3] = Particle size distribution by laser light scattering (Malvern Master Sizer 2000, wet method); format: physicochemical; settings: for span index: (D90-D10)/D50 type width of distribution; for D50 (mean size measurement) / percentage of particles <10 μm (fine particles): wet method, H2O with 0.5% Tween 20, sonication 60 sec
Protocol: The PSD is determined by the “laser light scattering” technique, that is, the scattering (diffraction) which a high-energy, monochromatic light beam (a laser beam) undergoes when it encounters a particle of a particular size on its optical path. The powder to be examined may be prepared by various techniques, both dry and wet; in the latter case, the selection of the dispersant should take account of the chemical/physical properties of the raw material to be analyzed. Once the sample has been analyzed, the results can be given as histograms in which each individual column represents a band of a certain width (in microns), whereas the height represents the percentage of sample present in that band. The principal statistical distribution values calculated by the software of this apparatus are, amongst other things, the D50, that is, the size in microns for which 50% of the sample is smaller and 50% is larger. Another important measurement is the “span”, which is the measurement of the width of the distribution. This width is calculated by the following ratio: [formula] where D90 and D10 have meanings analogous to that of D50. The smaller this “span” index is, the more reliable the particle distribution of the sample examined will be. The apparatus used for the determination of the PSD was a Malvern Master Sizer 2000 and the method used was the wet method with the use of H2O as the dispersant with a concentration of 0.5% of Tween 20 as surfactant. The measurements were taken at a concentration of dexloxiglumide of about 0.06-0.08% after ultrasound sonication for 60 sec which enabled the accumulations to be broken up without breaking the crystals. Note: The particle sizes given both in the text and in the claims are not absolute quantities but are relative to the measurement method used (in this case the Malvern Master Sizer 2000 instrument with the method described in Example 1).

[4] = Morphological analysis of the crystals by microscopy (300x); format: physicochemical; settings: photographs, 300x magnification
Protocol: Morphological analysis performed by microscopic analysis of the crystals obtained by crystallization from ethanol/H2O and isopropyl ether, respectively, also confirms what had already been seen with by particle-size analysis by laser-beam diffraction.
It can be seen from a comparison of the two images of FIG. 2 that the product crystallized from isopropyl ether has crystals with well-defined, lamellar shapes with an average diameter of about 70-100 μm, whereas the other lot has crystals of irregular shape with very many smaller aggregated crystals.

| SMILES | antagonistic activity towards CCK1 receptor [1] | Carr index [2] | shape of particle distribution [3] | span index [3] | D50 (mean size measurement) [3] | percentage of particles <10 μm (fine particles) [3] | average diameter of crystals [4] |
| --- | --- | --- | --- | --- | --- | --- | --- |
| CCCCCN(CCCOC)C(=O)[C@@H](CCC(=O)O)NC(=O)c1ccc(Cl)c(Cl)c1 [Dexloxiglumide, (R)-4-[(3,4-dichlorobenzoyl)amino]-5-[(3-methoxypropyl)-pentylamino]-5-oxo-pentanoic acid] | potent antagonistic activity | – | – | – | – | – | – |
| CCCCCN(CCCOC)C(=O)[C@@H](CCC(=O)O)NC(=O)c1ccc(Cl)c(Cl)c1 [dexloxiglumide obtained by crystallization from H2O/ethanol ] [(R)-4-[(3,4-dichlorobenzoyl)amino]-5-[(3-methoxypropyl)-pentylamino]-5-oxo-pentanoic acid, reference compound] | – | > 33 | bimodal | 4.668 | 23.6 μm | 29.5% | – |
| CCCCCN(CCCOC)C(=O)[C@@H](CCC(=O)O)NC(=O)c1ccc(Cl)c(Cl)c1 [lot PP9282/43851, (R)-4-[(3,4-dichlorobenzoyl)amino]-5-[(3-methoxypropyl)-pentylamino]-5-oxo-pentanoic acid] | – | about 12 | practically unimodal | 1.608 | 97.3 μm | 4.23% | 70-100 μm |
